Calls of active or inactive are those of the source. No cut-off for these calls is given here.
Tests used:
[1] = target: T1, UDP-glucuronosyltransferase 1A8 (Homo sapiens, UniProt Q9HAW9); assay: Drug metabolism assessed as UGT1A8 (unknown origin)-mediated metabolite formation; assay type: ADME
T1 sequence (Q9HAW9 whole entry): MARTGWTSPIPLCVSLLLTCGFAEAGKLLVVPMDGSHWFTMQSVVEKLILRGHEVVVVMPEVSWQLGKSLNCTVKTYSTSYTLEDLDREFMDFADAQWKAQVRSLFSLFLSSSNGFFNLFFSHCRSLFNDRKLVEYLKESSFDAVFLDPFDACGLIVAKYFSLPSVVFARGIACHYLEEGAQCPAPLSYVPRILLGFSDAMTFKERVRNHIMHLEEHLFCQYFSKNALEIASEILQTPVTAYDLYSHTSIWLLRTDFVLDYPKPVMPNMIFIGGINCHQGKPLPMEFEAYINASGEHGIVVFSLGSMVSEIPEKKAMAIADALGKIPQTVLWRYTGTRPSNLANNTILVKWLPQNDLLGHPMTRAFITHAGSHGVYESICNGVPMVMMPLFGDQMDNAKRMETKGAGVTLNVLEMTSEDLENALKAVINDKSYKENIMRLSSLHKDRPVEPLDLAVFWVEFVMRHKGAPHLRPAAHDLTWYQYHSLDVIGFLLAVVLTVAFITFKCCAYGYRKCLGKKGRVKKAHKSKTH

Mus musculus [2] = assay: Anti-inflammatory activity in Swiss mouse assessed as inhibition of LPS-induced pleural accumulation in neutrophils cells at 100 mg/kg, ip pretreated for 1 hr followed by LPS stimulation and measured after 24 hrs by May-Grunwald-Giemsa staining-based Neubauer chamber based optical microscopy; assay type: functional, organism-based
[3] = target: T2, UDP-glucuronosyltransferase 1A1 (Homo sapiens, UniProt P22309); assay: Drug metabolism assessed as UGT1A1 (unknown origin)-mediated metabolite formation; assay type: ADME
T2 sequence (P22309 whole entry): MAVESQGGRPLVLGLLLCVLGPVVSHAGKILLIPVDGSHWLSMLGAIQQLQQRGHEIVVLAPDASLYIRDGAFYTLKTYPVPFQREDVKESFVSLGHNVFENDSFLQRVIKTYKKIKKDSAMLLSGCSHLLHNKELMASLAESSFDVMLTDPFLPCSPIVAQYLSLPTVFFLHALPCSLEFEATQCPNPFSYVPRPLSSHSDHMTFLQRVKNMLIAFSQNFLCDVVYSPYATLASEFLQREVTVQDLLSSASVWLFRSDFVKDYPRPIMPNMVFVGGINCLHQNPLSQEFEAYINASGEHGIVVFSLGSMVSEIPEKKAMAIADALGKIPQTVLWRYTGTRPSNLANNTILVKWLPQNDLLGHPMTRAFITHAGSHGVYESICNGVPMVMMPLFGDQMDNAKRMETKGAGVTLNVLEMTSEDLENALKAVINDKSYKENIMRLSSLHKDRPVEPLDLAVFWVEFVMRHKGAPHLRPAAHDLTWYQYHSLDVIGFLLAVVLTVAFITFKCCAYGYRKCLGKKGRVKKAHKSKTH

[4] = target: T3, UDP-glucuronosyltransferase 1A4 (Homo sapiens, UniProt P22310); assay: Drug metabolism assessed as UGT1A4 (unknown origin)-mediated metabolite formation; assay type: ADME
T3 sequence (P22310 whole entry): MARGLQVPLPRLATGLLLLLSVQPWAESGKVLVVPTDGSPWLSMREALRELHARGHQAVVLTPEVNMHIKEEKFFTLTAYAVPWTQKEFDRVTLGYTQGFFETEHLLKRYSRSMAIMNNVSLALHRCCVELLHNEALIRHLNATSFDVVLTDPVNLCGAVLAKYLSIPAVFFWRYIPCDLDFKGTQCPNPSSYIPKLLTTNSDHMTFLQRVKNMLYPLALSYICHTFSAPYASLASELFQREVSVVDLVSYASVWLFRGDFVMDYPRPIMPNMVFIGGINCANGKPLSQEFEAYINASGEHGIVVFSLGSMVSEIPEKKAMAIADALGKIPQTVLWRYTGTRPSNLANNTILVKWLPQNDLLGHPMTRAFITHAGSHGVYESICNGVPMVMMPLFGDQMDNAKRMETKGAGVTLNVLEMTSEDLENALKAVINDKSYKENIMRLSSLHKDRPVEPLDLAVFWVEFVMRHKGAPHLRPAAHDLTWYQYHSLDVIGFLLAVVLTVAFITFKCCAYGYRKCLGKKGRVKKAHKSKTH

[5] = target: T4, UDP-glucuronosyltransferase 1A3 (Homo sapiens, UniProt P35503); assay: Drug metabolism assessed as UGT1A3 (unknown origin)-mediated metabolite formation; assay type: ADME
T4 sequence (P35503 whole entry): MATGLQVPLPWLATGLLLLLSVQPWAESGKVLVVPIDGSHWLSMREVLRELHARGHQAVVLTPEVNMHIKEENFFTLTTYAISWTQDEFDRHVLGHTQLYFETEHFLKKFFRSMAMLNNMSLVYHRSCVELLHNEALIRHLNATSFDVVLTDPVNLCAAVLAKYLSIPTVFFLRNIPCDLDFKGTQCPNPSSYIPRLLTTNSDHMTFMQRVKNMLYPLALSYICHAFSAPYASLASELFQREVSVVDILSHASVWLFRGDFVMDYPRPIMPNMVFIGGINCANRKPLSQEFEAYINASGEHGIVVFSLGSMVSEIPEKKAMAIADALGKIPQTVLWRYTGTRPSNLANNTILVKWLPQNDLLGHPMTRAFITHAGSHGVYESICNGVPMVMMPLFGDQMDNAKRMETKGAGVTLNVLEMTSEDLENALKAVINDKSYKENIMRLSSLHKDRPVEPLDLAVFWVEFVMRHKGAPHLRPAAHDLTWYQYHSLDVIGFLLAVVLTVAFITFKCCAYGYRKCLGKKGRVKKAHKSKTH

[6] = target: T5, UDP-glucuronosyltransferase 1A9 (Homo sapiens, UniProt O60656); assay: Drug metabolism assessed as UGT1A9 (unknown origin)-mediated metabolite formation; assay type: ADME
T5 sequence (O60656 whole entry): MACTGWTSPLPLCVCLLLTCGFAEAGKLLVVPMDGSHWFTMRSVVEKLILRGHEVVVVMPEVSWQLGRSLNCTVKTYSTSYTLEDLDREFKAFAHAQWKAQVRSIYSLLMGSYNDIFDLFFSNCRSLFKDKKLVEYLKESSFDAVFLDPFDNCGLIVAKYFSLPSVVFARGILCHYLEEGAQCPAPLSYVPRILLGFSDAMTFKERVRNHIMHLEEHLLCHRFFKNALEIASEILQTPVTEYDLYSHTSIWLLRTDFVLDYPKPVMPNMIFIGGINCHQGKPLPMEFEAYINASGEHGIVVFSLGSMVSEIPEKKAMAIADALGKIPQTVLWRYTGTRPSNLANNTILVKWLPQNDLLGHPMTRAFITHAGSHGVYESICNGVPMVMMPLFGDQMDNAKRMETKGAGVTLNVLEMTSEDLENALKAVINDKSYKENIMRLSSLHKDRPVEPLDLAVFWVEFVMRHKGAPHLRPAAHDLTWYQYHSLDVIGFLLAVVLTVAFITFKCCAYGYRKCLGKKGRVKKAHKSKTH

Mus musculus [7] = assay: Anti-inflammatory activity in Swiss mouse assessed as inhibition of LPS-induced pleural accumulation in neutrophils at 1 to 100 ng/kg, ip pretreated for 1 hr followed by LPS stimulation and measured after 24 hrs by May-Grunwald-Giemsa staining-based Neubauer chamber based optical microscopy; assay type: functional, organism-based

Row | Drug metabolism [1] | Drug metabolism [3] | Drug metabolism [4] | Drug metabolism [5] | Drug metabolism [6] | SMILES | Activity (Mus musculus [2]) | Activity (Mus musculus [7])
1 | Metabolite_Notdetected | Metabolite_Notdetected | Metabolite_Notdetected | Metabolite_Detected | Metabolite_Notdetected | O=C(O)Cc1ccccc1Nc1c(Cl)cccc1Cl [DICLOFENAC] | inactive | –
2 | Metabolite_Notdetected | Metabolite_Notdetected | Metabolite_Detected | Metabolite_Notdetected | Metabolite_Notdetected | CCOCc1cn(-c2ccc(Cl)cc2)nn1 | – | inactive
3 | Metabolite_Notdetected | Metabolite_Notdetected | Metabolite_Notdetected | Metabolite_Detected | Metabolite_Detected | CC(C)Cc1ccc(C(C)C(=O)O)cc1 (configuration not stated) [IBUPROFEN] | – | –
4 | Metabolite_Notdetected | Metabolite_Detected | Metabolite_Notdetected | Metabolite_Detected | Metabolite_Detected | COc1ccc2cc([C@H](C)C(=O)O)ccc2c1 [NAPROXEN] | – | –
